# Measured values from US7074789B2, “Kinase inhibitors” (Amgen Inc., priority 1999, dated 2006).
# Read-outs that look alike come from different tables or passages of the source.
# Tests used:
# Format in all cases: biochemical
# Lck = target: T1, Lck (Homo sapiens, UniProt P06239); assay: Kinase inhibition assay (33P transfer), Lck; settings: read-out: Lck-1
# T1 construct: Kinases are expressed as either kinase domains or full length constructs; made in house
# Method in brief: (§1)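 Filterless plate radiometric format: immobilized poly(Glu,Tyr) 4:1 or poly(Arg,Ser) 3:1, 33P-labelled ATP, tagged recombinant kinase (some with regulatory partners). Incorporated label counted after phosphoric acid wash.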
# Zap-70 = target: T2, Zap-70 (Homo sapiens, UniProt P43403); assay: Kinase inhibition assay (33P transfer), Zap-70; settings: read-out: Zap-1
# T2 construct: Kinases are expressed as either kinase domains or full length constructs; made in house
# T2 sequence (P43403 1-619): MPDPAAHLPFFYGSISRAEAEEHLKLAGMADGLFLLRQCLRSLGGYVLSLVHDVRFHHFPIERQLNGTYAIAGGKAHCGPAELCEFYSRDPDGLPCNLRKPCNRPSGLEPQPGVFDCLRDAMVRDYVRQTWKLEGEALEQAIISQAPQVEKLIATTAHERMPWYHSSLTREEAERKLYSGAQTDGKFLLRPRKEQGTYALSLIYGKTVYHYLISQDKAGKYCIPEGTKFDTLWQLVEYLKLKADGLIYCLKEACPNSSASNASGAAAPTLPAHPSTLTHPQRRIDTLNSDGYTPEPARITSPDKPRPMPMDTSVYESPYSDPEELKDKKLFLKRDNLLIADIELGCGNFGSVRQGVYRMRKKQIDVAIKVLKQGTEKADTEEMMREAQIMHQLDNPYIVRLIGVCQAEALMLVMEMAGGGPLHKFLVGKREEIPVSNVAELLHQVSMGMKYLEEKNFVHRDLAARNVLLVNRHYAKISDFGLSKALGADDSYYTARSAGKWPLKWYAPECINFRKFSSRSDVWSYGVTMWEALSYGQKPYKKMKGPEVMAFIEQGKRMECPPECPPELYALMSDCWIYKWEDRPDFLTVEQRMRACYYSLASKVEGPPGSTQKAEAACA
# Method in brief: as §1
# Itk = target: T3, Itk (Homo sapiens, UniProt Q08881); assay: Kinase inhibition assay (33P transfer), Itk; settings: read-out: Itk-1
# T3 construct: Kinases are expressed as either kinase domains or full length constructs; made in house
# T3 sequence (Q08881 1-620): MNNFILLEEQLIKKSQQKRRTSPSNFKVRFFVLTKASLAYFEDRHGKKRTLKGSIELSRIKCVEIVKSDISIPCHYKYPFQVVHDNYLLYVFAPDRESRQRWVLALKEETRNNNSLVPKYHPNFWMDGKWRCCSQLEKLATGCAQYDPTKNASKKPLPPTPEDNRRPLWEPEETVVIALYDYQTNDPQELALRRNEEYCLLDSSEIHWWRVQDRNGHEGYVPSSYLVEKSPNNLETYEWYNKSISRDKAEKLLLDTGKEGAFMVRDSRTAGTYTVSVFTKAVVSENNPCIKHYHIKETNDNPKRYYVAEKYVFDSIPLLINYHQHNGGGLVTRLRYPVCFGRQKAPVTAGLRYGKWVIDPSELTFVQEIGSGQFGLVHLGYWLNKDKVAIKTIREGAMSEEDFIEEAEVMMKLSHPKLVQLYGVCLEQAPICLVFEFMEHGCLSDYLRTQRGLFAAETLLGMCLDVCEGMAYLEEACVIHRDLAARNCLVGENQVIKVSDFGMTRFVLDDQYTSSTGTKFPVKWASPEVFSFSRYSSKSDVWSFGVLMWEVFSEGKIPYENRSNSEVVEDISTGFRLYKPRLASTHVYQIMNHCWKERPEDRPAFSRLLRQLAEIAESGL
# Method in brief: (§2)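 Read-out: scintillation counts of 33P moved from ATP onto synthetic peptide polymer coated on the well surface, after washing with 0.5% phosphoric acid. Enzymes were tagged (GST or polyHistidine) and came from bacterial or insect-cell expression. IC50 marks 50% loss of incorporated label.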
# EGFR = target: T4, EGFR (Homo sapiens, UniProt P00533); assay: Kinase inhibition assay (33P transfer), EGFR; settings: Table 2, kinase inhibition class; read-out: EGFR-1
# T4 construct: Kinases are expressed as either kinase domains or full length constructs; made in house
# Method in brief: as §2
# Kdr = target: T5, Kdr (Homo sapiens, UniProt P35968); assay: Kinase inhibition assay (33P transfer), Kdr; settings: read-out: KDR-1
# T5 construct: Kinases are expressed as either kinase domains or full length constructs; made in house
# Method in brief: as §1
# Tek = target: T6, Tek (Homo sapiens, UniProt Q02763); assay: Kinase inhibition assay (33P transfer), Tek; settings: read-out: Tek-1
# T6 construct: Kinases are expressed as either kinase domains or full length constructs; made in house
# Excerpt: The inhibitor compounds described herein are screened in the following manner. Kinases suitable for use in the following protocol to determine kinase activity of the compounds described herein include, -but are not limited to: Lck, Lyn, Src, Fyn, Syk, Zap-70, Itk, Tec, Btk, EGFR, ErbB2, Kdr, Flt-1, Flt-3, Tek, c-Met, InsR, and AKT.
# Kinases are expressed as either kinase domains or full length constructs fused to glutathione S-transferase (GST) or polyHistidine tagged fusion proteins in either E. colior Baculovirus-High Five expression systems. They are purified to near homogeneity by affinity chromatography essentially as previously described (Lehr et al., 1996; Gish et al., 1995). In some instances, kinases are co-expressed or mixed with purified or partially purified regulatory polypeptides prior to measurement of activity.
# Kinase activity and inhibition are measured essentially by established protocols (Braunwalder et al., 1996). Briefly, The transfer of ^33PO4 from ATP to the synthetic substrates poly(Glu, Tyr) 4:1 or poly(Arg, Ser) 3:1 attached to the bioactive surface of microtiter plates serves as the basis to evaluate enzyme activity. After an incubation period, the amount of phosphate transferred is measured by first washing the plate with 0.5% phosphoric acid, adding liquid scintillant, and then counting in a liquid scintillation detector. The IC50 is determined by the concentration of compound that causes a 50% reduction in the amount of […] incorporated onto the substrate bound to the plate.
# c-Met = target: T7, c-Met (Homo sapiens, UniProt P08581); assay: Kinase inhibition assay (33P transfer), c-Met; settings: Table 2, kinase inhibition class; read-out: Met-1
# T7 construct: Kinases are expressed as either kinase domains or full length constructs; made in house
# Method in brief: as §2
# AKT = target: T8, AKT (Homo sapiens, UniProt Q9Y243); assay: Kinase inhibition assay (33P transfer), AKT; settings: Table 2, kinase inhibition class; read-out: AKT3-1
# T8 construct: Kinases are expressed as either kinase domains or full length constructs; made in house
# Method in brief: as §1
# T4 sequence (P00533 25-1210, species assumed): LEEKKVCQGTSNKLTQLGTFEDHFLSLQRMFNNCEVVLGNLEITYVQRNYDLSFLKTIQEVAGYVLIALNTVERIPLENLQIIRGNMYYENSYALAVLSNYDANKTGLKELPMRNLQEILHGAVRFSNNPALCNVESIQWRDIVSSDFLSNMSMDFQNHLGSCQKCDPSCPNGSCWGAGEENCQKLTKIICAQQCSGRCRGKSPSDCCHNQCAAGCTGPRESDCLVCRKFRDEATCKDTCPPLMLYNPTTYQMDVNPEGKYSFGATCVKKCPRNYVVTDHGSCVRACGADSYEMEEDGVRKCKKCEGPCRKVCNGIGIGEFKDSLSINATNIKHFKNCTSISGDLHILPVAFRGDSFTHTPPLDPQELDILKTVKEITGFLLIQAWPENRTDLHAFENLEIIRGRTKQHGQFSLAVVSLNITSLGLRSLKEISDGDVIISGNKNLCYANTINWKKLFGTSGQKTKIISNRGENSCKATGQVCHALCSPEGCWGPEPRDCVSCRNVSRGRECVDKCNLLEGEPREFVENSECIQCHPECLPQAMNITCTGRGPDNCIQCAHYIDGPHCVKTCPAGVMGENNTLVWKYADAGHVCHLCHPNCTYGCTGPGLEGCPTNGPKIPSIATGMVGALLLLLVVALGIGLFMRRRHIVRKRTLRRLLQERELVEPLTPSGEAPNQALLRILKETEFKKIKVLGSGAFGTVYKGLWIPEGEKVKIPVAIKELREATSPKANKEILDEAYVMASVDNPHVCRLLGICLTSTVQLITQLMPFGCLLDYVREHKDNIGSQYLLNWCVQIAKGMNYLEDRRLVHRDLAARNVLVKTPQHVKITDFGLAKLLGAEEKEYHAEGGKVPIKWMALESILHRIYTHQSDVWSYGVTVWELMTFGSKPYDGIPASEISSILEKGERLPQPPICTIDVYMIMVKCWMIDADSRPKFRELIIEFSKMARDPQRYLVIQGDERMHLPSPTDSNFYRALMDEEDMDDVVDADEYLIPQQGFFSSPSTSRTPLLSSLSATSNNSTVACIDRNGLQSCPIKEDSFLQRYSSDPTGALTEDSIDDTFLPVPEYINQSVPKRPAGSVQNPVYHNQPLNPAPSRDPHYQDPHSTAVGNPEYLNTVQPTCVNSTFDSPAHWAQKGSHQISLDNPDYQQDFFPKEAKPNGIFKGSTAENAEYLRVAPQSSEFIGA
# T5 sequence (P35968 20-1356, species assumed): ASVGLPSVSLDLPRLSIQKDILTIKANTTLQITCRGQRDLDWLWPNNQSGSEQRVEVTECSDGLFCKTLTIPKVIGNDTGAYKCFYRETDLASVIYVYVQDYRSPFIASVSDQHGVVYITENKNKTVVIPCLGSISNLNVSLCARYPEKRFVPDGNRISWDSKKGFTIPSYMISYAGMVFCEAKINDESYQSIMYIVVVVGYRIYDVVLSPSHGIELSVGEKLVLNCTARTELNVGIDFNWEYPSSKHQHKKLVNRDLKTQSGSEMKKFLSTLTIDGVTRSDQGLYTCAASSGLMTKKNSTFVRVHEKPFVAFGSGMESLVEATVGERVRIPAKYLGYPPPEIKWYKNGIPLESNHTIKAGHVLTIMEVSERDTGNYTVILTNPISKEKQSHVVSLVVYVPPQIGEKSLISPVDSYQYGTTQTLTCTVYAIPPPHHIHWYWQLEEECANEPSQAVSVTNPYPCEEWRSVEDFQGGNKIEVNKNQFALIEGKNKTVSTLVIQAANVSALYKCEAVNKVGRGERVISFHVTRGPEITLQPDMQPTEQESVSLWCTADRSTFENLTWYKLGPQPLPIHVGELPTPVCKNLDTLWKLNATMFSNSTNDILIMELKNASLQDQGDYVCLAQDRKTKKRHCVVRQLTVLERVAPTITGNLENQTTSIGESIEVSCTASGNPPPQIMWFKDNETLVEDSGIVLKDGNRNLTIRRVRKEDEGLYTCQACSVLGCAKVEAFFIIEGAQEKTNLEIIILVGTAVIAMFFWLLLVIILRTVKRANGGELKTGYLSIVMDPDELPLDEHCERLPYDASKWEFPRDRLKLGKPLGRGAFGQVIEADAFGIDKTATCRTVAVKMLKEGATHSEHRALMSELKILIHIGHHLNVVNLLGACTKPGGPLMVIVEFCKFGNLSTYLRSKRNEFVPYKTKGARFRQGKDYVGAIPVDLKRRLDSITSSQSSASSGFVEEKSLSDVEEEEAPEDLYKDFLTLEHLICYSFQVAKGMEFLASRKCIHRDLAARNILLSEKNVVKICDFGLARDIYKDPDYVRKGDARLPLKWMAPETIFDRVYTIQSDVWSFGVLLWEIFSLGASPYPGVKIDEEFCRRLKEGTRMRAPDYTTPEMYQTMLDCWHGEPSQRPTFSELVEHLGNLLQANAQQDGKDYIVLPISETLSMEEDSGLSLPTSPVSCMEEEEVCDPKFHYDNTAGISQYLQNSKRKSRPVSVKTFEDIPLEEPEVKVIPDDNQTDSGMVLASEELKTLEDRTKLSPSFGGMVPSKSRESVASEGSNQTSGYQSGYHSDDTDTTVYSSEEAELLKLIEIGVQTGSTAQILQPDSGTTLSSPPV
# T8 sequence (Q9Y243 whole entry, the tested form may be a part): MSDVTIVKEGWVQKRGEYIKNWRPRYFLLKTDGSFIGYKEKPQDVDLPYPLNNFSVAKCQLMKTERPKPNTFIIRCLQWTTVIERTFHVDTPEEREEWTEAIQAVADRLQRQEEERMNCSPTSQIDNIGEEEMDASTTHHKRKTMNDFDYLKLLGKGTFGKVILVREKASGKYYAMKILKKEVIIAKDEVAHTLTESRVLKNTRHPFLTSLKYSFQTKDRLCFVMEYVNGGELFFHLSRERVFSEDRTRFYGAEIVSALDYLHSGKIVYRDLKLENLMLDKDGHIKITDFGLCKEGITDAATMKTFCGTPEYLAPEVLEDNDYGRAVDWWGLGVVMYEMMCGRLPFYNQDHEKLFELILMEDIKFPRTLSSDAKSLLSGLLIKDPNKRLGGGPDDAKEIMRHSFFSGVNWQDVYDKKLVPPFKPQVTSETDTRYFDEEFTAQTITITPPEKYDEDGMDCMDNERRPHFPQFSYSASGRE
# T1 sequence (P06239 whole entry, species assumed, the tested form may be a part): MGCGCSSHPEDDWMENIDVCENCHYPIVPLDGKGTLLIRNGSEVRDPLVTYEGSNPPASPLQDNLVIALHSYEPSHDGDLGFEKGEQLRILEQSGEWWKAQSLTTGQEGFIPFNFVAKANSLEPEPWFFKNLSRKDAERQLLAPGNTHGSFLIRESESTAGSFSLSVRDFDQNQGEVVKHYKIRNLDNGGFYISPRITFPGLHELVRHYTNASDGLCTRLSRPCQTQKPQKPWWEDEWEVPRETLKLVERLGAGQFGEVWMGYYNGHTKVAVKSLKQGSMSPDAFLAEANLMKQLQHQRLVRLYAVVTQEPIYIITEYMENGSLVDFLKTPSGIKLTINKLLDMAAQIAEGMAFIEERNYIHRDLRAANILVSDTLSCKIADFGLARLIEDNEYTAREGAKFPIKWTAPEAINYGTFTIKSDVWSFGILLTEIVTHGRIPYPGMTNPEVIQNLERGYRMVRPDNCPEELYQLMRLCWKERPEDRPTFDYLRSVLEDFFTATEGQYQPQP
# T7 sequence (P08581 25-1390): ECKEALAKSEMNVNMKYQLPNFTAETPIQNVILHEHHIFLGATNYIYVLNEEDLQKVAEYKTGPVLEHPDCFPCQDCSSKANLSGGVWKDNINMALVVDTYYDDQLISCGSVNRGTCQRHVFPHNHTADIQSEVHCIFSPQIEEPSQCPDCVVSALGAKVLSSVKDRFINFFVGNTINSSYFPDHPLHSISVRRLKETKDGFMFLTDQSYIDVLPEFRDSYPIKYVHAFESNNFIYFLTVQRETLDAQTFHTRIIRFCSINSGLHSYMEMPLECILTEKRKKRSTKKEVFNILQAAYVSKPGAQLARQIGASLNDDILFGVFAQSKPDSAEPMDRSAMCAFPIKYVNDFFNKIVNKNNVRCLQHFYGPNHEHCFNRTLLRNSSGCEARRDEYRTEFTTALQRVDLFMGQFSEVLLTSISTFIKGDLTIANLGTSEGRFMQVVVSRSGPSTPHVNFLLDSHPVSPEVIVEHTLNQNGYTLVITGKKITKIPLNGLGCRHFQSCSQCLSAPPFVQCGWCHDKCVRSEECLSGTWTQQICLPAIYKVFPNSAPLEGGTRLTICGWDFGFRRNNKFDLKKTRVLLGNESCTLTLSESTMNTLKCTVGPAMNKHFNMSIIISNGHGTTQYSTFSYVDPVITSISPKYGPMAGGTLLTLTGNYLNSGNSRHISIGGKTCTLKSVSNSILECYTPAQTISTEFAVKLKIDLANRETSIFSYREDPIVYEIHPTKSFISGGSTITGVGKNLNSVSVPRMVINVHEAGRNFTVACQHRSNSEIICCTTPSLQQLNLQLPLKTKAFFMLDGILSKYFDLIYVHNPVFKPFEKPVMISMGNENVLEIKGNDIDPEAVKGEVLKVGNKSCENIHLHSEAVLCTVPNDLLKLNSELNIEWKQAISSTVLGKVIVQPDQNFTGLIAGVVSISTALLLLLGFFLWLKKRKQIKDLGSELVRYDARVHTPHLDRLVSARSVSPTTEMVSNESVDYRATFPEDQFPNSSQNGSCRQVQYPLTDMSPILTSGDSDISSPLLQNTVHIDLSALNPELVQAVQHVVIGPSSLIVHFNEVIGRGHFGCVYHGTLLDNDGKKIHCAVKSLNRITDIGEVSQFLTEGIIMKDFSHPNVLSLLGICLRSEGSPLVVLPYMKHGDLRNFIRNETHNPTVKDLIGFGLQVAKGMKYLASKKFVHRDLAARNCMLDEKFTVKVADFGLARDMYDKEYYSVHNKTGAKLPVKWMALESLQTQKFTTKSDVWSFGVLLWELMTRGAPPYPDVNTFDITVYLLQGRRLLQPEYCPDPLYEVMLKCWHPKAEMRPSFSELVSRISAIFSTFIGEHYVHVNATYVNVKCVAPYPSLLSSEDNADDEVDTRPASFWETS
IC50 (Lck),IC50 (Zap-70),IC50 (Itk),IC50 (EGFR),IC50 (Kdr),IC50 (Tek),IC50 (c-Met),IC50 (AKT),IC50 (Lck; Table 3),IC50 (Zap-70; Table 3),IC50 (Itk; Table 3),IC50 (Kdr; Table 3),SMILES
1 to 6.02 µM,> 11.3 µM,8.78 to 11.3 µM,8.78 to 11.3 µM,< 1 µM,8.78 to 11.3 µM,> 11.3 µM,> 11.3 µM,–,–,–,–,COc1ccc(-c2ncnc(Nc3cc(OC)c(OC)c(OC)c3)n2)cc1OC [Compound 230]
–,–,–,> 9.01 µM,–,7.01 to 9.01 µM,> 9.01 µM,> 9.01 µM,> 9.01 µM,> 9.01 µM,> 9.01 µM,4.8 to 7.01 µM,COc1ccccc1Nc1nc2ccccc2n1-c1ncnc(Nc2cc(OC)c(OC)c(OC)c2)n1 [Compound 398]
–,–,–,> 8.5 µM,–,> 8.5 µM,> 8.5 µM,6.61 to 8.5 µM,6.61 to 8.5 µM,> 8.5 µM,> 8.5 µM,0.755 to 4.53 µM,COc1cc(Nc2nc3ccccc3n2-c2ncnc(Nc3cc(OC)c(OC)c(OC)c3)n2)cc(OC)c1 [Compound 399]
–,–,–,> 8.04 µM,–,> 8.04 µM,> 8.04 µM,> 8.04 µM,> 8.04 µM,> 8.04 µM,> 8.04 µM,0.715 to 4.29 µM,COc1cc(Nc2ncnc(-n3c(Nc4cc(OC)c(OC)c(OC)c4)nc4ccccc43)n2)cc(OC)c1OC [Compound 402]
–,–,–,> 10.7 µM,–,> 10.7 µM,> 10.7 µM,> 10.7 µM,> 10.7 µM,> 10.7 µM,> 10.7 µM,0.949 to 5.69 µM,COc1cc(Nc2ncnc(-n3c(N(C)C)nc4ccccc43)n2)cc(OC)c1OC [Compound 405]
> 13.1 µM,> 13.1 µM,> 13.1 µM,> 13.1 µM,> 13.1 µM,–,> 13.1 µM,> 13.1 µM,–,–,–,–,O=c1[nH]c2ccccc2n1-c1ncnc(Nc2ccc3[nH]ncc3c2)n1 [Compound 685]
> 12.7 µM,> 12.7 µM,> 12.7 µM,> 12.7 µM,> 12.7 µM,–,> 12.7 µM,> 12.7 µM,–,–,–,–,O=c1[nH]c2ccccc2n1-c1ncnc(Nc2cccc3ncccc23)n1 [Compound 686]
1.13 to 6.75 µM,> 12.7 µM,9.85 to 12.7 µM,9.85 to 12.7 µM,1.13 to 6.75 µM,–,> 12.7 µM,> 12.7 µM,–,–,–,–,O=c1[nH]c2ccccc2n1-c1ncnc(Nc2ccc3ncccc3c2)n1 [Compound 687]
> 12.7 µM,6.75 to 9.85 µM,> 12.7 µM,> 12.7 µM,> 12.7 µM,–,> 12.7 µM,> 12.7 µM,–,–,–,–,O=c1[nH]c2ccccc2n1-c1ncnc(Nc2cccc3cccnc23)n1 [Compound 688]
> 17.8 µM,> 17.8 µM,> 17.8 µM,> 17.8 µM,> 17.8 µM,–,> 17.8 µM,> 17.8 µM,–,–,–,–,CC(C)(C)c1cc(Nc2ncnc(Cl)n2)[nH]n1 [Compound 975]
